# Data reported in ChEMBL document CHEMBL5053528, “Discovery of 2-(Ortho-Substituted Benzyl)-Indole Derivatives as Potent and Orally Bioavailable RORγ Agonists with Antitumor Activity” (J Med Chem, 2021).
# Assays:
# [1] = biological target: T1, Nuclear receptor ROR-gamma (Homo sapiens, UniProt P51449); test: Agonist activity at human RORgamma in cytostim stimulated human PBMC cells assessed as increase in differentiation of TH17 cells by measuring IL-17 production preincubated with cytostim for 72 hrs by ELISA; type: cell-based
# T1 sequence (P51449 whole entry): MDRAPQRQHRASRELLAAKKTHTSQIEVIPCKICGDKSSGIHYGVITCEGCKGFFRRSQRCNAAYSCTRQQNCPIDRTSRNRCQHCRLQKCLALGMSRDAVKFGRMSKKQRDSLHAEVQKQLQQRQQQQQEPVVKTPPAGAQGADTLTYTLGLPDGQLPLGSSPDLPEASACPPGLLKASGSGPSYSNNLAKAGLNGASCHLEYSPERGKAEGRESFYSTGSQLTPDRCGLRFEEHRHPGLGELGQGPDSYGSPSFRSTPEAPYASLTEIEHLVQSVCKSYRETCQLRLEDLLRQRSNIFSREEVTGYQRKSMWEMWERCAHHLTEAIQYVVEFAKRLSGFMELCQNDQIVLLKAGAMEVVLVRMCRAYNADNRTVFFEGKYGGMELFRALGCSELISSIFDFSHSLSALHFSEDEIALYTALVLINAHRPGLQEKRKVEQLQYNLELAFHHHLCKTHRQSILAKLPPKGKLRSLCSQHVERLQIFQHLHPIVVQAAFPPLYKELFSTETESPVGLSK
# [2] = Microsomal stability in rat liver microsomes assessed as half life; type: ADME, Microsome
# [3] = biological target: T1, Nuclear receptor ROR-gamma; test: Agonist activity at N-terminal GST tagged human RORgamma LBD using fluorescein-D22 as coactivator incubated for 60 mins by Lanthascreen TR-FRET assay
# [4] = Microsomal stability in human liver microsomes assessed as half life; type: ADME, Microsome
# [5] = Volume of distribution in mouse at 2 mg/kg, po; type: ADME, organism-based; settings: in vivo
# [6] = Oral bioavailability in mouse; type: ADME, organism-based; settings: in vivo
# [7] = Volume of distribution in mouse at 1 mg/kg, iv; type: ADME, organism-based; settings: in vivo, iv, 1 mg/kg
# [8] = Cmax in dog at 2 mg/kg, po; type: ADME, organism-based, Canis lupus familiaris; set-up: dose 2 mg/kg, route po; settings: in vivo
# [9] = Half life in rat at 2 mg/kg, po; type: ADME, organism-based; settings: in vivo
# [10] = Clearance in dog at 0.5 mg/kg, iv; type: ADME, organism-based, Canis lupus familiaris; settings: in vivo
# [11] = Drug exposure in plasma of C57BL/6 mouse injected with mouse MC38 cells at 10 mg/kg, po measured 3 hrs post dose on day 25 in combination with anti-mouse PD1 monoclonal antibody at 5 mg/kg, ip by LC/MS analysis; type: ADME, organism-based, MC-38; settings: time 25 day
# [12] = AUC (0 to t) in rat at 2 mg/kg, po; type: ADME, organism-based; set-up: dose 2 mg/kg, route po; settings: in vivo
# [13] = Volume of distribution in rat at 1 mg/kg, iv; type: ADME, organism-based; settings: in vivo
# [14] = Drug exposure in plasma of C57BL/6 mouse injected with mouse MC38 cells at 10 mg/kg, po measured 3 hrs post dose on day 25 by LC/MS analysis; type: ADME, organism-based, MC-38; settings: time 25 day
# [15] = Half life in rat at 1 mg/kg, iv; type: ADME, organism-based; settings: in vivo
# [16] = Effects of compound in IFNgamma production in CD3/CD28-stimulated C57BL/6 mouse tumor lymphocytes assessed as increase in IFNgamma production at 10 mg/kg by ELISA (Rvb= 262 +/- 81 pg/ml); type: functional, Lymphocyte
# [17] = AUC (0 to t) in dog at 2 mg/kg, po; type: ADME, organism-based, Canis lupus familiaris; set-up: dose 2 mg/kg, route po; settings: in vivo
# [18] = AUC (0 to t) in dog at 0.5 mg/kg, iv; type: ADME, organism-based, Canis lupus familiaris; set-up: dose 0.5 mg/kg, route iv; settings: in vivo
# Mus musculus [19] = test: Toxicity in C57BL/6 mouse injected with mouse MC38 cells assessed as change in body weight at 10 mg/kg, po administered once daily for 25 days in combination with anti-mouse-PD1 monoclonal antibody at 5 mg/kg, ip and measured twice a week; type: organism-based, MC-38; settings: in vivo, 600 h, time 25 day
# [20] = Drug exposure in tumor of C57BL/6 mouse injected with mouse MC38 cells at 10 mg/kg, po measured 3 hrs post dose on day 25 by LC/MS analysis; type: ADME, organism-based, Neoplasm, MC-38; settings: time 25 day, read-out: Drug uptake
# MC-38 [21] = test: Antitumor activity against mouse MC38 cells injected C57BL/6 mouse syngenic model assessed as tumor growth inhibition at 10 mg/kg, po administered once daily for 25 days relative to control; type: functional; settings: C57BL/6, MC-38, 600 h, time 25 day, read-out: TGI
# [22] = Volume of distribution in rat at 2 mg/kg, po; type: ADME, organism-based; settings: in vivo
# [23] = Half life in mouse at 1 mg/kg, iv; type: ADME, organism-based; settings: in vivo, iv, 1 mg/kg
# [24] = Effects of compound in IL-17 production in CD3/CD28-stimulated C57BL/6 mouse tumor lymphocytes assessed as increase in IL-17 production at 10 mg/kg by ELISA (Rvb= 19 +/- 5 pg/ml); type: functional, Lymphocyte
# [25] = Effects of compound in IL-17 production in CD3/CD28-stimulated C57BL/6 mouse tumor lymphocytes assessed as increase in IL-17 production at 10 mg/kg in combination with anti-mouse PD1 monoclonal antibody at 5 mg/kg by ELISA (Rvb= 29 +/- 9 pg/ml); type: functional, Lymphocyte
# [26] = AUC (0 to t) in mouse at 1 mg/kg, iv; type: ADME, organism-based; set-up: dose 1 mg/kg, route iv; settings: in vivo
# [27] = AUC (0 to t) in rat at 1 mg/kg, iv; type: ADME, organism-based; set-up: dose 1 mg/kg, route iv; settings: in vivo
# [28] = Oral bioavailability in rat; type: ADME, organism-based; settings: in vivo
# [29] = Half life in dog at 0.5 mg/kg, iv; type: ADME, organism-based, Canis lupus familiaris; settings: in vivo
# [30] = Half life in mouse at 2 mg/kg, po; type: ADME, organism-based; settings: in vivo
# Mus musculus [31] = test: Toxicity in C57BL/6 mouse infected with mouse MC38 cells assessed as change in body weight at 10 mg/kg, po administered once daily for 25 days and measured twice a week; type: organism-based, MC-38; settings: in vivo, 600 h, time 25 day
# [32] = Cmax in rat at 2 mg/kg, po; type: ADME, organism-based; set-up: dose 2 mg/kg, route po; settings: in vivo
# [33] = Oral bioavailability in dog; type: ADME, organism-based, Canis lupus familiaris; settings: in vivo
# [34] = Volume of distribution in dog at 2 mg/kg, po; type: ADME, organism-based, Canis lupus familiaris; settings: in vivo
# [35] = AUC (0 to t) in mouse at 2 mg/kg, po; type: ADME, organism-based; set-up: dose 2 mg/kg, route po; settings: in vivo
# [36] = Half life in dog at 2 mg/kg, po; type: ADME, organism-based, Canis lupus familiaris; settings: in vivo
# [37] = Drug exposure in tumor of C57BL/6 mouse injected with mouse MC38 cells at 10 mg/kg, po measured 3 hrs post dose on day 25 in combination with anti-mouse PD1 monoclonal antibody at 5 mg/kg, ip by LC/MS analysis; type: ADME, organism-based, Neoplasm, MC-38; settings: time 25 day, read-out: Drug uptake
# [38] = Effects of compound in IFNgamma production in CD3/CD28-stimulated C57BL/6 mouse tumor lymphocytes assessed as increase in IFNgamma production at 10 mg/kg in combination with anti-mouse PD1 monoclonal antibody at 5 mg/kg by ELISA (Rvb= 1467 +/- 878 pg/ml); type: functional, Lymphocyte
# [39] = Volume of distribution in dog at 0.5 mg/kg, iv; type: ADME, organism-based, Canis lupus familiaris; settings: in vivo
# MC-38 [40] = test: Antitumor activity against mouse MC38 cells injected C57BL/6 mouse syngenic model assessed as tumor growth inhibition at 10 mg/kg, po administered once daily for 25 days in combination with anti-mouse PD-1 monoclonal antibody at 5 mg/kg, ip relative to control; type: functional; settings: C57BL/6, MC-38, 600 h, time 25 day, read-out: TGI
# [41] = Clearance in rat at 1 mg/kg, iv; type: ADME, organism-based; settings: in vivo
# [42] = Cmax in mouse at 2 mg/kg, po; type: ADME, organism-based; set-up: dose 2 mg/kg, route po; settings: in vivo
# [43] = biological target: T1, Nuclear receptor ROR-gamma; test: Antagonist activity at N-terminal GST tagged human RORgamma LBD using fluorescein-D22 as coactivator incubated for 60 mins by Lanthascreen TR-FRET assay
smiles,measurement,setting,value
CCS(=O)(=O)c1ccc(CNC(=O)c2ccc3c(c2)cc(Cc2ccc(F)cc2C(F)(F)F)n3C(C)C)cc1,EC50,[1],17 nM
same,half-life,[2],1.07 h
same,EC50,[3],14 nM
same,half-life,[4],1.2 h
CCS(=O)(=O)c1ccc([C@H](CO)NC(=O)c2ccc3c(c2)cc(Cc2ccc(Cl)cc2C(F)(F)F)n3CCF)cc1,Vd,[5],0.637 L/kg
same,bioavailability,[6],31.7%
same,Vd,[7],0.877 L/kg
same,Cmax,[8],2080 ng/mL
same,half-life,[9],5.96 h
same,clearance,[10],0.954 mL/min/kg
same,concentration at 600 h,[11],10800 ng/mL
same,AUC(0-t),[12],618 ng·h/mL
same,Vd,[13],3.65 L/kg
same,concentration at 600 h,[14],9120 ng/mL
same,half-life,[15],2.67 h
same,Activity,[16],1217 pg/mL
same,AUC(0-t),[17],29100 ng·h/mL
same,AUC(0-t),[18],8640 ng·h/mL
same,Activity,Mus musculus [19],Non-Toxic
same,concentration at 600 h,[20],2020 ng/mL
same,inhibition in vivo at 10 mg/kg,MC-38 [21],37%
same,Vd,[22],25.7 L/kg
same,t1/2,[23],5.04 h
same,Activity,[24],36 pg/mL
same,Activity,[25],81 pg/mL
same,AUC(0-t),[26],79800 ng·h/mL
same,AUC(0-t),[27],1050 ng·h/mL
same,bioavailability,[28],29.4%
same,half-life,[29],8.8 h
same,half-life,[30],11.2 h
same,Activity,Mus musculus [31],Non-Toxic
same,Cmax,[32],55.7 ng/mL
same,bioavailability,[33],84.2%
same,Vd,[34],0.873 L/kg
same,AUC(0-t),[35],50600 ng·h/mL
same,half-life,[36],11.8 h
same,concentration at 600 h,[37],2320 ng/mL
same,Activity,[38],2455 pg/mL
same,Vd,[39],0.654 L/kg
same,inhibition in vivo at 10 mg/kg,MC-38 [40],62%
same,clearance,[41],16.2 mL/min/kg
same,Cmax,[42],3660 ng/mL
CCS(=O)(=O)c1ccc(CNC(=O)c2ccc3c(c2)cc(Cc2ccccc2OC)n3C(C)C)cc1,half-life,[2],0.2 h
same,half-life,[4],0.217 h
CCS(=O)(=O)c1ccc(CNC(=O)c2ccc3c(c2)cc(Cc2ccccc2Br)n3C(C)C)cc1,half-life,[2],0.2 h
same,half-life,[4],0.25 h
CCS(=O)(=O)c1ccc(CNC(=O)c2ccc3c(c2)cc(Cc2ccccc2C)n3C(C)C)cc1,EC50,[43],44 nM
CCS(=O)(=O)c1ccc(CNC(=O)c2ccc3c(c2)cc(Cc2ccccc2C(F)(F)F)n3C(C)C)cc1,half-life,[2],0.717 h
same,half-life,[4],0.65 h
